Assay results published in US20220372040A1, “METTL3 MODULATORS” (Accent Therapeutics, Inc., priority 2020, published 2022).

Experiments:
PRMT5-MEP50 = PRMT5-MEP50 (Homo sapiens, UniProt O14744); assay: PRMT5 assay (3H-SAM flashplate scintillation); assay type: biochemical; settings: PRMT5-MEP50 2.5 nM, histone H4 peptide 100 nM, 3H-SAM 250 nM, 60 min
Experimental: Assays were performed in a 25 μl-volume in 384-well V-bottom polypropylene microplates (Greiner Bio-One, cat. No. 781280) at ambient temperature. Optimized 1× assay buffer was 20 mM Tris-HCl pH 8.0, 1 mM DTT, […]. For compound screening PRMT5-MEP50 (final concentration, f.c.=2.5 nM) was added using a Multidrop Combi (ThermoFisher Scientific, Waltham, Mass.) and preincubated for 5 min. Reactions were started by adding 3′ biotinylated histone H4 peptide acetylated on serine 1 (Ac-[…]-Biotin) (f.c.=100 nM) and 3H-SAM (f.c.=250 nM) substrates. Reactions proceeded for 60 minutes and were quenched with excess non-radioactive SAM (f.c.=15 μM). The reactions were then transferred to streptavidin-coated flashplates and incubated for 2 hours at 25° C. Following two washing cycles with 0.1% Tween-20, the plates were sealed and read on a TopCount (PerkinElmer, Waltham, Mass.) plate-based scintillation counter. For determination of kinetic parameters, reaction times were optimized so that measurements were taken during the initial velocity phase of the reaction.

METTL3/METTL14 = METTL3/METTL14 (Homo sapiens, UniProt Q86U44); assay: METTL3-14 standard enzyme assay (3H-SAM flashplate scintillation); assay type: biochemical; settings: METTL3/METTL14 2.5 nM, RNA 100 nM, 3H-SAM 100 nM, 30 min
Sequence of METTL3/METTL14 (Q86U44 whole entry, species assumed): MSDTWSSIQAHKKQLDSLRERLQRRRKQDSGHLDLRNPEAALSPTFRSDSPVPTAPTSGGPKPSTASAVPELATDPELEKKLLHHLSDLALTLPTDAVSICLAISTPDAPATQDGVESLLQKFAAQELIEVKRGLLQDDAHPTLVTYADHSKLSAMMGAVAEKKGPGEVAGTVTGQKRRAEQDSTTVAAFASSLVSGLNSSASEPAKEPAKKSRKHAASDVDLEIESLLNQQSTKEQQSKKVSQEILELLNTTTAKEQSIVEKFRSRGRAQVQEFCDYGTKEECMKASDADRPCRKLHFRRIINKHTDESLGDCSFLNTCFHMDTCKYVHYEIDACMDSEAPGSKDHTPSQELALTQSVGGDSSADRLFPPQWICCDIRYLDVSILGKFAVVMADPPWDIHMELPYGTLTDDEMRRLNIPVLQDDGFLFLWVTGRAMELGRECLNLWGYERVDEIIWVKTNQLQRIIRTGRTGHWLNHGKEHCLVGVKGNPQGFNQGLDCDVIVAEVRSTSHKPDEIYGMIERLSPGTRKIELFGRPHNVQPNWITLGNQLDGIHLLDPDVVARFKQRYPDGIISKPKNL
Sequence of METTL3/METTL14 (Q9HCE5 whole entry partner, species assumed): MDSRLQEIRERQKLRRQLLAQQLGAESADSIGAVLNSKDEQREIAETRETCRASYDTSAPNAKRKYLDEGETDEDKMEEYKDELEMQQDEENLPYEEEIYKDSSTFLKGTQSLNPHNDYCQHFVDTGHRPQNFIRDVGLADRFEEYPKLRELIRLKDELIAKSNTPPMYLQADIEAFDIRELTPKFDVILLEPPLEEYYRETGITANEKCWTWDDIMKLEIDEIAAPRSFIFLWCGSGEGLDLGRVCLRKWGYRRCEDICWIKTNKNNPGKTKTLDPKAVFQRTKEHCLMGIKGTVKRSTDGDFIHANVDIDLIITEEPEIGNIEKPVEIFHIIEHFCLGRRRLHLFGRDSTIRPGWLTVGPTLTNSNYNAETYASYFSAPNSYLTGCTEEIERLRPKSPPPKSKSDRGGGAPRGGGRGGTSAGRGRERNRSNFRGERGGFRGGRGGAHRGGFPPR
Experimental: METTL3-14 Standard Enzyme Assay
Assays were performed in a 25 μl-volume in 384-well V-bottom polypropylene microplates (Greiner Bio-One, cat. No. 781280) at ambient temperature. Optimized 1× assay buffer was 20 mM HEPES pH 7.5, 50 mM KCl, 250 μM MgCl2, 1 mM DTT, 0.01% Tween, 0.01% BSG, 0.004 U/μl RNAseOUT (cat. No. 10777019, ThermoFisher Scientific, Waltham, Mass.). For compound screening METTL3/METTL14 (final concentration, f.c.=2.5 nM) was added using a Multidrop Combi (ThermoFisher Scientific, Waltham, Mass.) and preincubated for 5 min. Reactions were started by adding 3′ biotinylated RNA (UCUGGACUAAA-biotin) (f.c.=100 nM) and 3H-SAM (f.c.=100 nM) substrates. Reactions proceeded for 30 minutes and were quenched with excess non-radioactive SAM (f.c.=15 μM). The reactions were then transferred to streptavidin-coated flashplates and incubated for 2 hours at 25° C. Following two washing cycles with 0.1% Tween-20, the plates were sealed and read on a TopCount (PerkinElmer, Waltham, Mass.) plate-based scintillation counter. For determination of kinetic parameters, reaction times were optimized so that measurements were taken during the initial velocity phase of the reaction.

Sequence of PRMT5-MEP50 (O14744 whole entry): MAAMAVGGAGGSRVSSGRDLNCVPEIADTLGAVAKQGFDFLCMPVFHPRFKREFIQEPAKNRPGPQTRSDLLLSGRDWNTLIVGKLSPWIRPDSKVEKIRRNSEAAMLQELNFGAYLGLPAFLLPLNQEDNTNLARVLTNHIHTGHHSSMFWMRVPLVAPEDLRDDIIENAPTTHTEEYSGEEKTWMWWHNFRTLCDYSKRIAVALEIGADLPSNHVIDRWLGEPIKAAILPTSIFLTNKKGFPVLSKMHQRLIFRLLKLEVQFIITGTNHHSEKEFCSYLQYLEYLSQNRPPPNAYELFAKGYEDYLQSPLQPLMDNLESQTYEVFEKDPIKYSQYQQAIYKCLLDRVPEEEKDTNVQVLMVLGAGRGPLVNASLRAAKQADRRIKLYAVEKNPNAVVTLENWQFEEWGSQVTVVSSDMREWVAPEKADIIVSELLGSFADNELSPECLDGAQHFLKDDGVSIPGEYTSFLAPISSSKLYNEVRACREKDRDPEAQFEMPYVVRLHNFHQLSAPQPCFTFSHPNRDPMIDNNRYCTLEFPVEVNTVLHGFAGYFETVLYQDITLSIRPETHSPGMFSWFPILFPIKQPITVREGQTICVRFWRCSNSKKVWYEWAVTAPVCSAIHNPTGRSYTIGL
Sequence of PRMT5-MEP50 (Q9BQA1 whole entry partner): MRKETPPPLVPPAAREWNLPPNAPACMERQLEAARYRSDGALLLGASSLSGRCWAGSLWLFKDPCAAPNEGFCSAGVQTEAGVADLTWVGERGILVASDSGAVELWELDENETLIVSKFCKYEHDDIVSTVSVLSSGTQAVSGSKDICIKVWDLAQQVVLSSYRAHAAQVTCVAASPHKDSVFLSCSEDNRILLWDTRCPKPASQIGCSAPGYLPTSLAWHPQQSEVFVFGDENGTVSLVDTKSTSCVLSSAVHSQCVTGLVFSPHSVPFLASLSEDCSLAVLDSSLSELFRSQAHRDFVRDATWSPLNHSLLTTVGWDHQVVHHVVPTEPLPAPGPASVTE

Row | Structure (SMILES) | IC50 (PRMT5-MEP50) | IC50 (METTL3/METTL14)
1 | COc1ccccc1-c1cn(-c2cncc(COc3ccc4ccc(N5CCC5)nc4c3)c2)c2ncncc12 [Compound I-184] | > 1000 nM | > 1000 nM
2 | CCc1cc(NCCOC)c2ncc(OCc3cncc(-n4cc([C@H]5CCCO5)c5c(N)ncnc54)c3)cc2n1 [Compound I-151] |  | 10 to 100 nM
3 | CCc1cc(NCCOC)c2c(F)cc(OCc3cncc(-n4cc(C5CCCO5)c5c(N)ncnc54)n3)cc2n1 (centres unmarked) [Compound I-172] | > 1000 nM | > 1000 nM
4 | CC(C)c1cc(N)c2ccc(CCc3cncc(-n4ccc5c(N)ncnc54)c3)cc2n1 [Compound I-129] |  | 10 to 100 nM
5 | CC(C)c1cc(N)c2ccc(CCc3cncc(-n4cc(C5CCCC5)c5c(N)ncnc54)c3)cc2n1 [Compound I-130] |  | 10 to 100 nM
6 | CCNc1ccc2ccc(CCc3cncc(-n4cc([C@@H]5CCCO5)c5c(N)ncnc54)n3)cc2n1 [Compound I-140] |  | < 10 nM
7 | Nc1ncnc2c1c([C@@H]1CCCO1)cn2-c1cncc(COc2ccc3ccc(N4CCC4)nc3c2)n1 [Compound I-161] |  | < 10 nM
8 | Nc1ncnc2c1c(Cl)cn2-c1cccc(COc2ccc3ccc(N4CCCC4)nc3c2)c1 [Compound I-63] |  | > 1000 nM
9 | CCc1cc(N2CCNCC2)c2ccc(OCc3cncc(-n4cc([C@H]5CCCO5)c5c(N)ncnc54)c3)cc2n1 [Compound I-148] |  | 10 to 100 nM
10 | CCNc1ccc2ccc(CCc3cncc(-n4cc([C@H]5CCCO5)c5c(N)ncnc54)n3)cc2n1 [Compound I-139] |  | 10 to 100 nM
11 | CCc1cc(NCCOC)c2c(F)cc(OCc3cncc(-n4cc([C@@H]5CCCO5)c5c(N)ncnc54)c3)cc2n1 [Compound I-164] |  | 10 to 100 nM
12 | CCNc1ccc2ccc(CCc3cncc(-n4cc(C5CCCO5)c5c(N)ncnc54)c3)cc2n1 (centres unmarked) [Compound I-157] |  | 10 to 100 nM
13 | Nc1ncnc2c1c([C@H]1CCCO1)cn2-c1cncc(COc2ccc3ccc(N4CCC4)nc3c2)n1 [Compound I-160] |  | 10 to 100 nM
14 | CCc1cc(NCCOC)c2c(F)cc(OCc3cncc(-n4cc([C@H]5CCCO5)c5c(N)ncnc54)c3)cc2n1 [Compound I-163] |  | 10 to 100 nM

More lines, now with the values ahead:

Row | IC50 (PRMT5-MEP50) | IC50 (METTL3/METTL14) | Structure (SMILES)
15 | > 1000 nM | 10 to 100 nM | Cn1ccc(-c2cn(-c3cncc(COc4ccc5ccc(N6CC7(CC7)C6)nc5c4)c3)c3ncnc(N)c23)n1 [Compound I-203]
16 | 100 to 1000 nM | 10 to 100 nM | Cn1ccc(-c2cn(-c3cncc(COc4ccc5ccc(N6CCOCC6)nc5c4)c3)c3ncnc(N)c23)n1 [Compound I-196]
17 | > 1000 nM | > 1000 nM | Nc1cc(OCc2cncc(-n3ccc4c(N)ncnc43)c2)ccc1C(=O)N1CCNCC1 [Compound I-215]
18 | > 1000 nM | < 10 nM | CC(C)c1cc(N)c2ccc(OCc3cncc(-c4c[nH]c5c(N)ncnc45)c3)cc2n1 [Compound I-101]
19 | > 1000 nM | 100 to 1000 nM | CN(CCS(C)(=O)=O)c1ccc2ccc(OCc3cncc(-n4cc(-c5ccn(C)n5)c5c(N)ncnc54)c3)cc2n1 [Compound I-175]
20 | > 1000 nM | > 1000 nM | CN(C)C(=O)c1ccc(OCc2cncc(-n3cc(-c4ccn(C)n4)c4c(N)ncnc43)c2)cc1N [Compound I-177]
21 | > 1000 nM | > 1000 nM | COCCN(C)C(=O)c1ccc(OCc2cncc(-n3cc(-c4ccn(C)n4)c4c(N)ncnc43)c2)cc1N [Compound I-191]
22 |  | 100 to 1000 nM | Nc1cc(OCc2cncc(-n3cc([C@@H]4CCCO4)c4c(N)ncnc43)c2)ccc1C(=O)N1CCNCC1 [Compound I-166]
23 |  | 10 to 100 nM | CCc1cc(NCCOC)c2ccc(OCc3cncc(-n4cc([C@H]5CCCO5)c5c(N)ncnc54)c3)cc2n1 [Compound I-133]
24 |  | 10 to 100 nM | CCc1cc(C)c2ccc(OCc3cncc(-n4cc([C@@H]5CCCO5)c5c(N)ncnc54)c3)cc2n1 [Compound I-168]
25 |  | 10 to 100 nM | CCc1cc(NC(C)=O)c2ccc(OCc3cncc(-n4cc([C@@H]5CCCO5)c5c(N)ncnc54)c3)cc2n1 [Compound I-165]
26 |  | < 10 nM | Nc1ncnc2c1c(CO)cn2-c1cncc(COc2ccc3ccc(N4CCC4)nc3c2)c1 [Compound I-182]
